Results taken from patent publication US20220016080A1, “COMPOUNDS THAT SELECTIVELY AND EFFECTIVELY INHIBIT HAKAI-MEDIATED UBIQUITINATION, AS ANTI-CANCER DRUGS” (FUNDACIÓN PROFESOR NOVOA SANTOS, priority 2018, published 2022).

Tests used:
HT29 cells = assay: Migration assay, HT29; format: cell-based; details: HT-29; treated 48 h
Experimental: (§1) For invasion assays, cells were treated with Hakin-1 or DMSO as vehicle for 48 h using 1% FBS during the last 24 hours. 3×10^5 MDCK, MDCK-Hakai or LoVo cells were seeded in a cell invasion chamber (Cell invasion assaykit, Chemicon International) containing medium with 2% FBS. After 72 hours for MDCK and MDCK-Hakai Invasive and 16 h for LoVo cells, invasive cells invaded that reach the lower chamber containing 30% FBS were fixed and stained with crystal violet (Sigma Aldrich, St Louis, Mo.) following the manufacturer's specifications. For migration assays, HT29 cells were cultured with Hakin-1 or DMSO as vehicle for 48 h, using medium without serum the last 24 h. In the cell migration chamber were seeded 3×10^5 HT29 cells (Cell migration kit, Millipore, Bedford, Mass.) containing medium without serum. After 16 h, migrated cells in the lower chamber containing serum with 30% FBS were stained with crystal violet and counted following the manufacturer's specifications. For both invasion and migration assays cells were counted in five fields photographed with an Olympus microscope using a 20× objective, experiments were performed in triplicates for each condition and the assays were repeated at least three times. Results are expressed as mean±SD.

[1] = tested on: Hakai-MDCK xenograft tumours; assay: Tumour xenograft model (Hakai-MDCK cells in nude mice); format: in vivo, athymic nu/nu mice
Experimental: Xenografts experiments were performed in Experimental Surgery Unit—Technological Training Center from INIBIC in compliance with the European Community Law (86/609/EEC) and the Spanish law (R.D. 53/2013). The experiment was approved by the Ethics Committee for Animal Experimentation of Xerencia de Xestion Integrada da Coruna (XXIAC). Mice were in a 12/12 hours light/dark cycle with water and food available ad libitum. Six weeks old athymic nu/nu mice were randomly distributed in groups. One million of MDCK cells, resuspended in DMEM without serum and antibiotic, were subcutaneously inoculated in both flanks in two groups of 3 animals. The same number of Hakai-MDCK cells were injected in two groups of 4 animals. Twenty days after inoculation tumours in Hakai-MDCK were palpable. Then, half of the animals were treated with Hakin-1 (5 mg/kg) and the other half with the same concentration of DMSO every 3 days. Tumour outgrowth was monitored twice a week taking measurements of tumour length (L) and width (W) with an electronic calipter. Tumour volume was calculated as pLW2/6. Forty days after inoculation, animals were sacrificed. Tumours, lungs, kidneys and livers were collected and fixed in 4% PFA and embedded in paraffin blocks for histology and/or immunohistochemistry (IHC) analyses.
Tumours and tissues were deparaffinised, rehydrated and stained with haematoxylin and eosin (H&E) as previously described. Tumour sections (4 μm) were also deparaffinised and hydrated for immunohistochemistry. Antigen retrieval was carried by heating the samples (2100 Retriever; PickCell Laboratories) in citrate buffer (Dako REAL, Denmark) or in EDTA buffer. Then, endogenous peroxidase activity was blocked with peroxidase blocking (DakoCytomation, Denmark). Samples were blocked and permeabilized with 0.2% BSA and 0.1% Tx-100 for 1 hour and incubated with the indicated primary antibodies overnight at 4° C. in a wet chamber. Slides were incubated for 1 hour at room temperature with the secondary antibody and detection was carried our using DAB (DakoReal Envision kit) according to manufacturer instructions. Finally, nuclei were counterstained with Gill's Hematoxylin and mounted with DePeX. Pictures were taken with an Olympus microscope. Quantification of images was performed taken 5 photographs of each animal with Image J programme and the represented results are shown as mean±SEM. The number of mitosis was counted in sections stained with H&E. In this case, ten pictures of each tumour were taken with an Olympus BX50 microscope (objective 40×) and the number of mitosis was counted manually. Results are represented as mean±SEM and a representative photograph is shown for each condition. […]
Tissue sections from tumours were deparaffinised and rehydrated using standard protocols. The slides were rinsed twice with PBS and treated with citrate buffer buffer (Dako REAL, Denmark) in microwave at 350 W for 5 min. The tissue sections were then analysed with an in situ Cell Death Detection Kit, Fluorescein (Roche) following the manufacturer's instructions. Then, slides were incubated with Hoechst for 5 min in darkness. The reaction was visualized under an epifluorescence Olympus microscope using 20× objective. Five representative pictures of each section were taken. The percentage of positive cells was calculated and results are represented as mean±SEM.

LoVo cells [2] = assay: Immunofluorescence of E-cadherin, LoVo; format: cell-based; details: 48 h
Experimental: For western blot analysis, cells were treated with the indicated inhibitors for 48 h and the whole cell extracts were obtained as described previously. Twenty micrograms of lysates were resolved on a 10% polyacrilamide SDS-PAGE followed by western blot analysis performed as previously described. For immunofluorescence assays cells were grown for 24 h on glass coverslips and treated with the indicated inhibitors for 48 h. Cells were fixed with 4% PFA for 15 min, permeabilized with 0.5% […] and incubated with E-cadherin antibody for 2 h. Coverslips were incubated with fluorescein-tagged secondary antibody (Dakopatts, Sweden) for […]. Finally coverslips were mounted with ProLong Gold antifade reagent (LifeTech, UK) and images were taken in epifluorescence microscope (Olympus) using 40× objective.

HT-29 cells = assay: Soft agar-colony formation assay, HT29; format: cell-based; details: 28 days
Experimental: Soft agar-colony formation assay was performed on 12-well plates in triplicates at a density of 5×10^3 MDCK and MDCK-Hakai cells/well, or 12×10^3 HT29 cells/well. Cells were seeded in medium with 0.5% low-melting agarose over a layer with 0.75% low-melting agarose (Lonza Rockland, Me., USA). Cells were treated with the indicated inhibitors and DMSO was used as vehicle. Treatment was refreshed every 3 days and, after 21 days for MDCK and MDCK-Hakai cells or 28 days for HT29 cells, number of colonies were quantified. Quantification of five randomly-selected fields of each condition was photographed with a Nikon Eclipse-TI microscope (objective 4×). Experiments were conducted with three triplicates and were repeated three times. Data are represented as mean±SD.

Hakai-MDCK cells = assay: BrdU proliferation assay, Hakai-MDCK; format: cell-based; details: 48 h
Experimental: (§2) For BrdU assays, 1×10^4 of indicated cells were plated per well into a 96-well plate. After 24 h, cells were treated with the indicated inhibitors for 48 h. Three independent experiments were plated with six replicates per each condition. Cells were treated with […] BrdU for 2 h. BrdU incorporation into newly synthesized DNA was measured using a cell proliferation colorimetric immunoassay kit according to the manufacturer's instructions (Roche, Switzerland). Results are expressed as mean±S.D. Results are represented as percentage of positive cells (mean±S.D) of three independent experiments.

LoVo cells [3] = assay: Invasion assay, LoVo; format: cell-based; details: treated 48 h before seeding
Experimental: as §1

breast cancer MCF7 cell = assay: BrdU proliferation assay, MCF7; format: cell-based, human; details: 48 h
Experimental: as §2

[4] = Hakai-MDCK xenograft tumours, 5 mg/kg every 3 days
[5] = Hakai-MDCK xenograft, 5 mg/kg every 3 days

## O=C(O)c1ccc(-n2nnnc2SCC(=O)c2ccc([N+](=O)[O-])cc2)cc1 [Hakin-1, 4-(5-{[2-(4-nitrophenyl)-2-oxoethyl]thiol}-1H-tetrazol-1-yl)benzoic acid]
HT29 cells
  cell migration: important reduction of cell migration
[1]; Hakai-MDCK xenograft mice, compared to DMSO treated mice
  micrometastasis detected in lung (quantitative PCR of HA-tagged Hakai DNA): significant reduction of micrometastasis
[1]; Hakai-MDCK xenograft tumours
  Cortactin expression (immunohistochemistry): recovered
[1]; Hakai-MDCK xenograft tumours, in presence or absence of treatment
  E-cadherin (immunohistochemistry): not detected
[1]; [4]
  apoptosis (TUNEL assay): no effect on apoptosis was detected
  mitotic-index (H&E): markedly reduce
  number of Ki67-positive cells (immunohistochemistry): markedly reduce
[1]; Hakai-MDCK xenograft tumours, vs non-treated tumours
  number of blood vessels (CD31 angiogenic marker): strong reduction on the number of blood vessels
[1]; Hakai-MDCK xenograft, nude mice, 5 mg/kg every 3 days, vs DMSO
  xenograft tumour growth: potent effect on inhibiting xenograft tumour growth
[1]; [5]
  tumour-cell infiltration in blood vessels (H&E): no infiltration was detected
  xenograft tumour cell morphology (H&E): induction of tumour differentiation and an increase in cytoplasm size
[1]; lung and kidney tissues of treated nude mice, 5 mg/kg
  tissue damage (H&E, morphological structure): no damage was observed
[1]; tumour xenografts, compared to DMSO treated mice
  N-cadherin expression (immunohistochemistry): strongly reduced
LoVo cells [2]
  E-cadherin levels at cell-cell contacts (immunofluorescence): significant increase E-cadherin levels at cell-cell contacts
HT-29 cells
  colony formation (soft agar): robust inhibition of colony formation
Hakai-MDCK cells
  cell proliferation (BrdU): suppress proliferation
LoVo cells [3]
  cell invasion: strongly reduced cell invasion
Breast cancer MCF7 cell
  cell proliferation (BrdU): inhibits cell proliferation
